Structures are written as SMILES. ± gives the expanded uncertainty stated by the source.

Data set [1] in a line: Molar enthalpy of transition or fusion. The conditions noted are these: Crystal; DSC.
The conditions of data set [2]: Crystal; DTA.

For the compound `COc1ccc2cc([C@H](C)C(=O)O)ccc2c1` [(S)-(+)-naproxen], the “Molar enthalpy of transition or fusion” value in data set [1] came to 7.5 ± 0.215 kcal/mol. For the same compound, the Normal melting temperature in data set [2] is 154.6 ± 0.5 °C.

The values above are taken from the NIST ThermoML archive (doi:10.1021/je800920d).
